Molecular target: AKT-3 (Homo sapiens, UniProt Q9Y243)
Assay: AKT-3 inhibition assay (standard coupled enzyme assay)
Type: biochemical
Conditions: 170 μM ATP, 200 μM peptide, 45 nM AKT, 30° C.

Chain of AKT-3 (Q9Y243 whole entry): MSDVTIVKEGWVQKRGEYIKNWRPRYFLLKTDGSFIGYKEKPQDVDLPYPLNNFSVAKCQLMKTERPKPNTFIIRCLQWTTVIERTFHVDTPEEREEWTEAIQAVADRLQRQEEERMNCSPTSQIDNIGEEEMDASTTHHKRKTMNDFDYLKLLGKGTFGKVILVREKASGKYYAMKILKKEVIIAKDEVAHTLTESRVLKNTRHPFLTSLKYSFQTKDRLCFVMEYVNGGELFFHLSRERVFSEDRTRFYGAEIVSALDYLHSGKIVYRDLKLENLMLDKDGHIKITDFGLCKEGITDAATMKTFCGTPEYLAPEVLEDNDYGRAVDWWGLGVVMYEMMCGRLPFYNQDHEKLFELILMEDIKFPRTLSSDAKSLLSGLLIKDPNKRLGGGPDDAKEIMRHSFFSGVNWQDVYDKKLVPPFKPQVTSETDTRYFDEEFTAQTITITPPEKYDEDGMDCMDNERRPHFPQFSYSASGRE

Row | Ki [nM] | SMILES
1 | 1000 to 10000 | O=C(Cc1ccc(Cl)cc1)Nc1ccc2[nH]ncc2c1 [Compound I-5]
2 | 10000 to 20000 | O=C(Nc1ccc2[nH]ncc2c1)C(O)c1ccc(Br)cc1 (stereo not shown) [Compound I-37]
3 | 1000 to 10000 | N[C@H](C(=O)Nc1ccc2[nH]ncc2c1)c1ccccc1 [Compound I-49]
4 | 1000 to 10000 | NC(C(=O)Nc1ccc2[nH]ncc2c1)c1ccc(Cl)cc1 (stereo not shown) [Compound I-50]
5 | 1000 to 10000 | NC(C(=O)Nc1ccc2[nH]ncc2c1)c1cccc(C(F)(F)F)c1 (stereo not shown) [Compound I-53]
6 | 1000 to 10000 | NC(C(=O)Nc1ccc2[nH]ncc2c1)c1ccc2ccccc2c1 (stereo not shown) [Compound I-58]
7 | < 1000 | NCCCNC(C(=O)Nc1ccc2[nH]ncc2c1)c1cccc(Cl)c1 (stereo not shown) [Compound I-60]
8 | < 1000 | CNCCNC(C(=O)Nc1ccc2[nH]ncc2c1)c1cccc(Cl)c1 (stereo not shown) [Compound I-61]
9 | < 1000 | CN(C)CCNC(C(=O)Nc1ccc2[nH]ncc2c1)c1cccc(Cl)c1 (stereo not shown) [Compound I-62]
10 | 1000 to 10000 | CCNCCNC(C(=O)Nc1ccc2[nH]ncc2c1)c1cccc(Cl)c1 (stereo not shown) [Compound I-63]
11 | < 1000 | O=C(Nc1ccc2[nH]ncc2c1)C(NCCNCc1ccccc1)c1cccc(Cl)c1 (stereo not shown) [Compound I-64]
12 | 10000 to 20000 | O=C(Nc1ccc2[nH]ncc2c1)C(NCc1ccccn1)c1cccc(Cl)c1 (stereo not shown) [Compound I-65]
13 | 10000 to 20000 | O=C(Nc1ccc2[nH]ncc2c1)C(NCCc1ccccn1)c1cccc(Cl)c1 (stereo not shown) [Compound I-66]
14 | 1000 to 10000 | CCCNCCCNC(C(=O)Nc1ccc2[nH]ncc2c1)c1cccc(Cl)c1 (stereo not shown) [Compound I-68]
15 | < 1000 | NCCNC(C(=O)Nc1ccc2[nH]ncc2c1)c1ccc(Cl)cc1 (stereo not shown) [Compound I-70]
16 | 1000 to 10000 | COc1ccc(C(NCCN)C(=O)Nc2ccc3[nH]ncc3c2)cc1Cl (stereo not shown) [Compound I-71]
17 | 1000 to 10000 | NCCNC(C(=O)Nc1ccc2[nH]ncc2c1)c1ccc(Oc2ccccc2)c(Cl)c1 (stereo not shown) [Compound I-72]
18 | < 1000 | NCC(=O)NC(C(=O)Nc1ccc2[nH]ncc2c1)c1cccc(Cl)c1 (stereo not shown) [Compound I-74, 2-(2-Amino-acetylamino)-2-(3-chloro-phenyl)-N-(1H-indazol-5-yl)-acetamide]
19 | 10000 to 20000 | CCc1n[nH]c2ccc(NC(=O)[C@H](O)c3cccc(Cl)c3)cc12 [Compound I-79]
20 | 10000 to 20000 | Nc1n[nH]c2ccc(NC(=O)Cc3cccc(Cl)c3)cc12 [Compound I-82]
21 | 1000 to 10000 | Nc1n[nH]c2ccc(NC(=O)Cc3ccc(Cl)c(Cl)c3)cc12 [Compound I-83]

Row | Ki [nM] | SMILES
22 | 10000 to 20000 | COc1ccc(Br)cc1CC(=O)Nc1ccc2[nH]ncc2c1 [Compound I-94]
23 | 10000 to 20000 | N[C@@H](Cc1ccc(Cl)c(Cl)c1)C(=O)Nc1ccc2[nH]ncc2c1 [Compound I-95]
24 | < 1000 | NCCC(C(=O)Nc1ccc2[nH]ncc2c1)c1cccc(O)c1 (stereo not shown) [Compound I-115]
25 | 10000 to 20000 | NCC(C(=O)Nc1cc(-c2ccccc2)c2[nH]ncc2c1)c1ccc(Cl)c(Cl)c1 (stereo not shown) [Compound I-146]
26 | 1000 to 10000 | COC(=O)NCCC(C(=O)Nc1ccc2[nH]ncc2c1)c1ccc(Cl)c(Cl)c1 (stereo not shown) [Compound I-151]
27 | 1000 to 10000 | CNC(=O)NCCC(C(=O)Nc1ccc2[nH]ncc2c1)c1ccc(Cl)c(Cl)c1 (stereo not shown) [Compound I-152]
28 | 1000 to 10000 | NCC(C(=O)Nc1ccc2[nH]ncc2c1)c1cccc(Cl)c1 (stereo not shown) [Compound I-157]
29 | 1000 to 10000 | NCCC(C(=O)Nc1ccc2[nH]nc(NC(=O)Cc3ccccc3)c2c1)c1ccc(Cl)c(Cl)c1 (stereo not shown) [Compound I-192]
30 | < 1000 | NCCC(C(=O)Nc1ccc2[nH]nc(NC(=O)c3cccc(CN4CCCCC4)c3)c2c1)c1ccc(Cl)c(Cl)c1 (stereo not shown) [Compound I-214]
31 | < 1000 | NCCC(C(=O)Nc1ccc2[nH]nc(NC(=O)c3cccc(CN4CCOCC4)c3)c2c1)c1ccc(Cl)c(Cl)c1 (stereo not shown) [Compound I-215]
32 | < 1000 | CCN(CC)Cc1cccc(C(=O)Nc2n[nH]c3ccc(NC(=O)C(CCN)c4ccc(Cl)c(Cl)c4)cc23)c1 (stereo not shown) [Compound I-216]
33 | < 1000 | NCCC(C(=O)Nc1ccc2[nH]nc(NC(=O)c3cccc(Cn4ccnc4)c3)c2c1)c1ccc(Cl)c(Cl)c1 (stereo not shown) [Compound I-217]
34 | < 1000 | NCCC(C(=O)Nc1ccc2[nH]nc(NC(=O)c3cccc(CN4CCNCC4)c3)c2c1)c1ccc(Cl)c(Cl)c1 (stereo not shown) [Compound I-218]
35 | < 1000 | NCCC(C(=O)Nc1ccc2[nH]nc(NC(=O)c3cccc(SC(F)F)c3)c2c1)c1ccc(Cl)c(Cl)c1 (stereo not shown) [Compound I-219]
36 | < 1000 | CC(=O)c1cccc(C(=O)Nc2n[nH]c3ccc(NC(=O)C(CCN)c4ccc(Cl)c(Cl)c4)cc23)c1 (stereo not shown) [Compound I-220]
37 | < 1000 | CS(=O)(=O)c1cccc(C(=O)Nc2n[nH]c3ccc(NC(=O)C(CCN)c4ccc(Cl)c(Cl)c4)cc23)c1 (stereo not shown) [Compound I-221]
38 | < 1000 | NCCC(C(=O)Nc1ccc2[nH]nc(-c3cccc(-c4ccccc4)c3)c2c1)c1ccc(Cl)c(Cl)c1 (stereo not shown) [Compound I-223]
39 | < 1000 | NCCC(C(=O)Nc1ccc2[nH]nc(-c3cccc(C(F)(F)F)c3)c2c1)c1ccc(Cl)c(Cl)c1 (stereo not shown) [Compound I-224]
40 | 1000 to 10000 | CC(=O)c1n[nH]c2ccc(NC(=O)C(CN)c3ccc(Cl)c(Cl)c3)cc12 (stereo not shown) [Compound I-255]
41 | < 1000 | NCCC(C(=O)Nc1ccc2[nH]nc(-c3cccc(OC(F)(F)F)c3)c2c1)c1ccc(Cl)c(Cl)c1 (stereo not shown) [Compound I-256]

Molecular target: T1, PDK-1 (Homo sapiens, UniProt O15530)
T1 sequence (O15530 1-556): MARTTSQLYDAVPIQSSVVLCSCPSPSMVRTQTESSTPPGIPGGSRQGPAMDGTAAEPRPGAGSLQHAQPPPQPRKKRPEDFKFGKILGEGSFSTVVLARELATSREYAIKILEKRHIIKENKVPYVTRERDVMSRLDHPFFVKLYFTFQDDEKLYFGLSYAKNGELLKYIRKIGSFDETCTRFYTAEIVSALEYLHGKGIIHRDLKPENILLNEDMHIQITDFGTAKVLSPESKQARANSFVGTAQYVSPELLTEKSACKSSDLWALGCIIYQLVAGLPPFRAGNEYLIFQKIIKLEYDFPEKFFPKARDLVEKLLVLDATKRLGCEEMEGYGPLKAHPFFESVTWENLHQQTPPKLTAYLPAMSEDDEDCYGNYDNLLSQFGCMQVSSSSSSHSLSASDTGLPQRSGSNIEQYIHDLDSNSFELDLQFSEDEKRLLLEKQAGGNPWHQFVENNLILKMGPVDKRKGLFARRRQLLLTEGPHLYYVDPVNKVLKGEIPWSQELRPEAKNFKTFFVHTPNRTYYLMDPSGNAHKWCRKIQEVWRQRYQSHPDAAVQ
Assay: PDK-1 inhibition assay (radioactive-phosphate incorporation)
Type: biochemical
Conditions: 40 μM ATP, 65 μM PDKtide, 25 nM PDK-1, 30° C.

Row | Ki [nM] | SMILES
42 | > 3000 | CC(=O)O[C@@H](C(=O)Nc1ccc2[nH]ncc2c1)c1ccccc1 [Compound I-33]
43 | > 3000 | NCCC(C(=O)Nc1cc(-c2ccccc2Cl)c2[nH]ncc2c1)c1ccc(Cl)c(Cl)c1 (stereo not shown) [Compound I-148]
44 | 1000 to 3000 | NCCC(C(=O)Nc1ccc2[nH]nc(-c3cccc(-c4ccccc4)c3)c2c1)c1ccccc1 (stereo not shown) [Compound I-228]
45 | > 3000 | CC(C)c1cccc(-c2n[nH]c3ccc(NC(=O)C(CCN)c4ccccc4)cc23)c1 (stereo not shown) [Compound I-229]
46 | < 1000 | Cc1cccc(-c2n[nH]c3ccc(NC(=O)C(CCN)c4ccccc4)cc23)c1 (stereo not shown) [Compound I-238]
47 | 1000 to 3000 | NCCC(C(=O)Nc1ccc2[nH]nc(-c3cccc(OC(F)(F)F)c3)c2c1)c1ccccc1 (stereo not shown) [Compound I-239]
48 | < 1000 | NCCC(C(=O)Nc1ccc2[nH]nc(-c3cccc(C(N)=O)c3)c2c1)c1ccccc1 (stereo not shown) [Compound I-248]
49 | < 1000 | NCCC(C(=O)Nc1ccc2[nH]nc(-c3ccc(C(N)=O)cc3)c2c1)c1ccccc1 (stereo not shown) [Compound I-262]
50 | < 1000 | NCCC(C(=O)Nc1ccc2[nH]nc(-c3ccc(CCC(=O)O)cc3)c2c1)c1ccccc1 (stereo not shown) [Compound I-264]
51 | < 1000 | NCCC(C(=O)Nc1ccc2[nH]nc(-c3ccc(Oc4ccccc4)cc3)c2c1)c1ccccc1 (stereo not shown) [Compound I-265]
52 | < 1000 | NCCC(C(=O)Nc1ccc2[nH]nc(NC(=O)c3cccs3)c2c1)c1cccnc1 (stereo not shown) [Compound I-272]
53 | 1000 to 3000 | NCCC(C(=O)Nc1ccc2[nH]ncc2c1)c1cccc(O)c1 (stereo not shown) [Compound I-1007]
54 | > 3000 | O=C(CCC(C(=O)N1CCN(Cc2ccccc2)CC1)c1ccccc1)Nc1ccc2[nH]ncc2c1 (stereo not shown) [Compound I-1015]
55 | > 3000 | COc1cccc(C(CCNCc2ccccc2)C(=O)Nc2ccc3[nH]nc(C)c3c2)c1 (stereo not shown) [Compound I-1016]
56 | > 3000 | CNc1n[nH]c2ccc(NC(=O)C(CCN)c3ccccc3OC)cc12 (stereo not shown) [Compound I-1019]
57 | > 3000 | CC(=O)OC(C(=O)Nc1ccc2[nH]ncc2c1)c1ccccc1 (stereo not shown) [Compound I-1020]
58 | > 3000 | Cc1n[nH]c2ccc(NC(=O)CCC(NCc3ccccc3)c3ccccc3F)cc12 (stereo not shown) [Compound I-1024]

— patent US7041687B2, “Indazole compounds useful as protein kinase inhibitors” (Vertex Pharmaceuticals Incorporated, priority 2002, dated 2006)
